Measurements: patent publication US7339080B2, “Method for the production of diaminoxylene by continuous hydrogenation of liquid phthalonitrile” (BASF Aktiengesellschaft, priority 2003, dated 2008)

Test: solubility of IPN in process solvents (MXDA, liquid ammonia)
Format: physicochemical

N#Cc1cccc(C#N)c1 [IPN, 1,3-dicyanobenzene]
solubility of IPN in MXDA (in MXDA at 70° C.): approx. 20 % by weight | solubility of IPN in NH3 (in liquid ammonia (NH3) at 40° C.): approx. 45 % by weight
